One assay addresses T1, Rhodopsin kinase GRK1 (Homo sapiens, UniProt Q15835).
T1 sequence (Q15835 whole entry): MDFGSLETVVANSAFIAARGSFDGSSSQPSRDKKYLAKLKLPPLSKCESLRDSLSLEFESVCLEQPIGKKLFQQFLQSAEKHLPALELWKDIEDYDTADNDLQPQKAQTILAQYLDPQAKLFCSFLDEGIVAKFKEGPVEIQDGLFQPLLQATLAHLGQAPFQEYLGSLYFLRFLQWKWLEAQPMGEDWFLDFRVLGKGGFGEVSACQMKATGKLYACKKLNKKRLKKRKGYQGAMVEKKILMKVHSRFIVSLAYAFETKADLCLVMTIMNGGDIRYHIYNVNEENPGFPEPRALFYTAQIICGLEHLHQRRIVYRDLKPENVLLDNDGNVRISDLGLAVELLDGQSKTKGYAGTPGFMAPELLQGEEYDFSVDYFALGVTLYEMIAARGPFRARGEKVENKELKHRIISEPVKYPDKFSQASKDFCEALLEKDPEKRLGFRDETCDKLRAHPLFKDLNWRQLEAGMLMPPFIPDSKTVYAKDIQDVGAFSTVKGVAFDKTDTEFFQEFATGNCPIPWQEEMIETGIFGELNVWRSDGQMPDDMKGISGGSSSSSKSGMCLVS
Description: Inhibition of GRK1 (unknown origin) preincubated for 10 mins followed by peptide substrate and ATP addition measured after 1 hr by TR-FRET assay. A general note: In TR-FRET formats the signal depends on donor and acceptor labels being close together.

Assay [1] has as its target T2, Beta-adrenergic receptor kinase 1 (Homo sapiens, UniProt P25098).
T2 sequence (P25098 whole entry): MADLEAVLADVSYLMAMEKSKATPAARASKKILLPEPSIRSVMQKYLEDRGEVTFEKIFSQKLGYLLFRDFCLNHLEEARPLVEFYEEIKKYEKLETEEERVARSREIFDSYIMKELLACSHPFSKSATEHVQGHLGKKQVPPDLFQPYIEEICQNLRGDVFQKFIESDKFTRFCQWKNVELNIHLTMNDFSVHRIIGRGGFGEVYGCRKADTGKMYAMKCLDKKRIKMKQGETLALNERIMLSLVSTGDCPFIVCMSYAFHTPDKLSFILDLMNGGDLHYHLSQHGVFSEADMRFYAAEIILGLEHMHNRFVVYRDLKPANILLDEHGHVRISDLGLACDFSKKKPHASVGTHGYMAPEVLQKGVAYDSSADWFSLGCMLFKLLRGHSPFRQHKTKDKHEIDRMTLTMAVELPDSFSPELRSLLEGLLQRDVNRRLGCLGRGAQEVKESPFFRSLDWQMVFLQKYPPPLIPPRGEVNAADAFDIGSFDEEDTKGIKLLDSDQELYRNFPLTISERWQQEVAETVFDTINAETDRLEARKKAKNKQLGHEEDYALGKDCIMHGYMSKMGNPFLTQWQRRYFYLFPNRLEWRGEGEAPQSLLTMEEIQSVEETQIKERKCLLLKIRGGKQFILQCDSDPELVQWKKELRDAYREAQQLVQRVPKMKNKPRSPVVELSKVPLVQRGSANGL
Description: Inhibition of GRK2 (unknown origin) preincubated for 10 mins followed by peptide substrate and ATP addition measured after 1 hr by TR-FRET assay.

The species named for the next assay is Homo sapiens. Description: Selectivity ratio of IC50 for GRK5 (unknown origin) to IC50 for GRK2 (unknown origin) by phosphorylation assay.
Assay [2] deals with G protein-coupled receptor kinase 5 (Homo sapiens, UniProt P34947). The assay can be described thus: Inhibition of GRK5 (unknown origin) preincubated for 10 mins followed by peptide substrate and ATP addition measured after 1 hr by TR-FRET assay.

Usually IC50 stands for the point on the concentration scale where inhibition reaches its midpoint. Higher therefore signals a need for much substance.

Structures are written as SMILES.

Sequence of G protein-coupled receptor kinase 5 (P34947 whole entry): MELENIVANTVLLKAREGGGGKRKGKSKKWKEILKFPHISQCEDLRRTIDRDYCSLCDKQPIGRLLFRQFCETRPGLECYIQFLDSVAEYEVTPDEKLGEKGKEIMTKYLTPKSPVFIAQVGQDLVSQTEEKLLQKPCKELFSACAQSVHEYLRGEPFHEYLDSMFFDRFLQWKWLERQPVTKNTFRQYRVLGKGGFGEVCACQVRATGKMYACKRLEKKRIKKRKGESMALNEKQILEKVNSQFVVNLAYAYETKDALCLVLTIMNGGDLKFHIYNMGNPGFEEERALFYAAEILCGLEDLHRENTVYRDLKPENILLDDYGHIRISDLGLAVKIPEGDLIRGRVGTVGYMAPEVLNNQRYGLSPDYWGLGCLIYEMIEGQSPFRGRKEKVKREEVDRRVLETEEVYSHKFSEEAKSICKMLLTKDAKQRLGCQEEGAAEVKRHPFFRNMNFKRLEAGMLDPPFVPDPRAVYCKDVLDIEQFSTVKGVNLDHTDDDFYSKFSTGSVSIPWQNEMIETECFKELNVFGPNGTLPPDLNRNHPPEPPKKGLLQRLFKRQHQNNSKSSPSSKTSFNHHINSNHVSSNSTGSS

Consider `CC1=C(C(=O)Nc2ccc3[nH]ncc3c2)C(c2ccc(F)c(C(=O)NCc3cn4ccccc4n3)c2)NC(=O)N1` (centres undefined), for which the half-maximal inhibitory concentration (IC50) is 17000 nM on Rhodopsin kinase GRK1, 540 nM in assay [1] and 1900 nM in assay [2]. In addition, the Ratio IC50 in the assay listed under Homo sapiens was found to be 3.5.
